Data taken from US4574117A, “Stabilization of phenylalanine ammonia-lyase in a bioreactor using reducing agents” (Genex Corporation, priority 1984, dated 1986).

Tests used:
[1] = target: T1, phenylalanine ammonia-lyase (PAL) (Rhodotorula mucilaginosa, UniProt P10248); assay: Example 1: L-phenylalanine bioreaction with PAL-containing cells, 2-mercaptoethanol at 100, 500 and 1000 mg/liter; type: biochemical, Rhodotorula rubra; settings: after 15 hours, 35° C., pH 10.5; for L-Phenylalanine Produced: ammonium sulfate
T1 construct: endogenous in cells; host or cells: Rhodotorula rubra cells (aerobic fermentation, whole cells harvested by centrifugation)
T1 sequence (P10248 1-713): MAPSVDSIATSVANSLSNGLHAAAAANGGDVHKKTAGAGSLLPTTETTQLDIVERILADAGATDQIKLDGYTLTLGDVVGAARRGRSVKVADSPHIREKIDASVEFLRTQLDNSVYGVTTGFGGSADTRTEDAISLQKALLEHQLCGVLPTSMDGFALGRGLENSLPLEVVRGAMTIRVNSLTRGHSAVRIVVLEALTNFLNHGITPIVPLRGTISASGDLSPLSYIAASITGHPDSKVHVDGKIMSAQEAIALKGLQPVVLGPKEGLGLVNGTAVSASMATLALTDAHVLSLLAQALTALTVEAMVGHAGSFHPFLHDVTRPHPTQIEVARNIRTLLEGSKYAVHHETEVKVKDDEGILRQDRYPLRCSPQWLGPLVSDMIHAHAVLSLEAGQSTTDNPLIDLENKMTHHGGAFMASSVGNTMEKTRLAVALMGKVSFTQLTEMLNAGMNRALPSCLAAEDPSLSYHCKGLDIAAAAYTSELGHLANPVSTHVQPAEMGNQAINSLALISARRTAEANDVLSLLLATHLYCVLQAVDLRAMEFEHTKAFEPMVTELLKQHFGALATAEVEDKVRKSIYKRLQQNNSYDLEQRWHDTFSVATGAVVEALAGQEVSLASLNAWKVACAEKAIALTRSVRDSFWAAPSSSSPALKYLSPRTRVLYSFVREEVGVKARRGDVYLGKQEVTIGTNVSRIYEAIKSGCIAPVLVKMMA
Description: Microbial cells containing a high level of activity of phenylalanine ammonia-lyase (PAL) were produced by aerobic fermentation. A 14 liter fermentor containing 10 liters of nutrient medium was inoculated with a seed culture of Rhodotorula rubra. The nutrient medium consisted of: soy peptone 2.7%; casein hydrolysate (Sheffield NZ-Amine) 1.35%; and corn steep liquor 0.18%. The fermentor contents were aerated and agitated, and the pH was maintained at 6.0 by periodic additions of ammonia water or sulfuric acid. During the fermentation, the PAL activity of the cells was monitored, and when the PAL activity reached a maximum (approximately 22 hours after inoculation), the fermentation was stopped by shutting off the aeration and agitation. The vessel was de-aerated by sparging with nitrogen gas. The microbial cells were separated from the fermentation broth by centrifugation, and stored at 4° C. Four 14 liter vessels were each filled with 13 liters of a substrate solution containing: ammonia, 4 mole/liter; ammonium sulfate, 100 gram/liter; and trans-cinnamic acid, 10 gram/liter. The pH of the solution was 10.5, and the temperature was maintained at 35° C. The vessels were deaerated by sparging with nitrogen gas, and 2-mercaptoethanol was added to three of the vessels in amounts of 100, 500, and 1000 mg/liter. PAL-containing microbial cells were then added to all four vessels in the amount of 1.35 gram (dry basis) per liter. The vessels were agitated for one minute every three hours. Supplemental trans-cinnamic acid was added to the vessels in the amount of 2.5 gram/liter at 3, 6, 9, and 12 hours after the addition of cells. After 15 hours, the concentration of L-phenylalanine in the reaction mixture was measured, and the PAL activity of the cells was determined. The results, which are shown in Table I, indicate that the stability of PAL was enhanced by the reducing agent, with the result that a greater quantity of L-phenylanine was produced. The optimum concentration for 2-mercaptoethanol is between 100 and 1000 mg/liter.

[2] = target: T1, phenylalanine ammonia-lyase (PAL); assay: Example 2: bioreaction in ammonium carbonate or ammonium sulfate substrate solution with 2-mercaptoethanol; type: biochemical, Rhodotorula rubra; settings: 600 mg/l 2-mercaptoethanol, after 15 hours
Method: Four 14 liter vessels were each filled with 13 liters of substrate solution. In two of the vessels, the substrate solution contained: ammonia, 5 mole/liter; ammonium carbonate, 120 gram/liter; and trans-cinnamic acid, 10 gram/liter. The other two vessels contained a substrate solution composed of: ammonia, 4.2 mole/liter; ammonium sulfate, 75 gram/liter; and trans-cinnamic acid, 10 gram/liter. The pH in all four vessels was 10.5, and the temperature was maintained at 35° C. All four vessels were de-aerated by sparging with nitrogen gas. Finally, one vessel of each pair had 600 mg/liter of 2-mercaptoethanol added. The reaction was started by adding PAL-containing microbial cells to each of the four vessels in the amount of 1.7 gram (dry basis) per liter. (The microbial cells were produced by the method of Example 1.) The vessels were agitated for one minute every three hours. Supplemental trans-cinnamic acid was added to all four vessels in the amount of 2.5 gram/liter at 3, 6, 9, and 12 hours after the addition of cells. After 15 hours, the concentration of L-phenylalanine in the reaction mixtures was measured, and the PAL activity of the cells was determined.

[3] = target: T1, phenylalanine ammonia-lyase (PAL); assay: Example 3: optimum concentration of 2-mercaptoethanol, five vessels; type: biochemical, Rhodotorula rubra; settings: for L-Phenylalanine Produced / PAL Activity (% of Activity): after 24 hours
Method: The optimum concentration of 2-mercaptoethanol was determined by carrying out reactions in five vessels with varying concentrations of 2-mercaptoethanol. The procedures used were the same as those described in Examples 1 and 2, with the following modifications. The nutrient medium for the fermentation was composed of: yeast extract (Amber Laboratories, Amberex 1003) 1.35%; corn steep liquor 0.18%; and L-phenylalanine 2.7%. The substrate solution for L-phenylalanine production contained: ammonia 5.1 mole/liter; ammonium sulfate 120 gram/liter; and cinnamic acid 10 gram/liter, with 2.5 gram/liter added at 3, 6, 9, and 12 hours after the addition of cells. The quantity of cells added to each of the vessels was 1.6 gram (dry basis) per liter. After 24 hours, the L-phenylalanine concentration in the reaction mixture was measured, and the PAL activity of the cells was determined.

[4] = target: T1, phenylalanine ammonia-lyase (PAL); assay: Example 4: 300 gallon reactor bioreaction with 2-mercaptoethanol; type: biochemical, Rhodotorula rubra; settings: 404 ml 2-mercaptoethanol in 900 liters substrate solution, after 53.5 hours, 30° C.
Method: PAL-containing microbial cells were cultivated in three 250-liter fermentors, each containing 163 liters of nutrient medium. The medium was composed of: yeast extract (Amber Laboratories, Amberex 1003) 1.38%; beet molasses 4%; diammonium phosphate 0.18%; and L-phenylalanine 0.92%. The fermentor was inoculated with a shake flask culture of Rhodotorula rubra. The fermentation was carried out at 30° C. with aeration and agitation. The pH was maintained at 6.0 by periodic additions of ammonia water or sulfuric acid. During the fermentation, the PAL activity of the microbial cells was monitored, and when the PAL activity reached a maximum, at 28-30 hours after inoculation, the fermentations were stopped by shutting off the aeration and agitation. The vessels were de-aerated by sparging with nitrogen gas. Microbial cells were harvested by means of a Westfalia disc-bowl centrifuge. The combined yield of cells from all three fermentators was 5.04 kg (dry basis). Substrate solution for L-phenylalanine production was prepared as follows. […] The trans-cinnamic acid concentration in the reaction mixture was monitored at intervals of approximately two hours, and supplemental trans-cinnamic acid was added whenever necessary, to maintain a concentration of between 10 and 18 gram/liter. […]

PAL = settings: cited from earlier work

For `OCCS` [2-mercaptoethanol], the “PAL Activty (% of Initial)” value ([1]; 100 mg/l 2-mercaptoethanol) was 31.2 % of Initial, the “L-Phenylalanine Produced” value ([1]; 100 mg/l 2-mercaptoethanol) was 7.34 gm/l and the “PAL Activty (% of Initial)” value ([1]; 500 mg/l 2-mercaptoethanol) was 39.4 % of Initial. The “L-Phenylalanine Produced” value ([1]; 500 mg/l 2-mercaptoethanol) was 9.26 gm/l, the “PAL Activty (% of Initial)” value ([1]; 1,000 mg/l 2-mercaptoethanol) was 35.9 % of Initial and the “L-Phenylalanine Produced” value ([1]; 1,000 mg/l 2-mercaptoethanol) was 8.54 gm/l. For the same compound, the “L-Phenylalanine Produced” value ([2]; ammonium carbonate) was 12.9 gm/l, the “PAL Activity (% of Initial)” value ([2]; ammonium carbonate) was 46.6 % of Initial and the “L-Phenylalanine Produced” value ([2]; ammonium sulfate) was 10.8 gm/l. For the same compound, the “PAL Activity (% of Initial)” value ([2]; ammonium sulfate) was 38.7 % of Initial, the “L-Phenylalanine Produced” value ([3]; 300 mg/l 2-mercaptoethanol) was 12.6 gram/l and the “PAL Activity (% of Activity)” value ([3]; 300 mg/l 2-mercaptoethanol) was 27.5 % of Activity. For the same compound, the “L-Phenylalanine Produced” value ([3]; 400 mg/l 2-mercaptoethanol) was 14.6 gram/l, the “PAL Activity (% of Activity)” value ([3]; 400 mg/l 2-mercaptoethanol) was 32.4 % of Activity and the “L-Phenylalanine Produced” value ([3]; 500 mg/l 2-mercaptoethanol) was 15.4 gram/l. The “PAL Activity (% of Activity)” value ([3]; 500 mg/l 2-mercaptoethanol) was 34.2 % of Activity, the “L-Phenylalanine Produced” value ([3]; 600 mg/l 2-mercaptoethanol) was 14.8 gram/l and the “PAL Activity (% of Activity)” value ([3]; 600 mg/l 2-mercaptoethanol) was 32.7 % of Activity. For the same compound, the “L-Phenylalanine Produced” value ([3]; 800 mg/l 2-mercaptoethanol) was 14.6 gram/l, the “PAL Activity (% of Activity)” value ([3]; 800 mg/l 2-mercaptoethanol) was 31.7 % of Activity and the “optimum concentration of 2-mercaptoethanol” value ([3]; Example 3 conditions) was “approximately 500 mg/liter”. For the same compound, the “PAL activity of the cells in the reactor, of the initial activity” value [4] was 27% and the “L-phenylalanine in the reaction mixture” value ([4]; ammonium carbonate) was 33.3 gram/liter.

For `CC[C@H](C)[C@H](N)C(=O)O` [L-isoleucine, reference compound], the “effect on PAL stability” value (PAL; extended the useful period of activity of the enzyme) is listed as “stabilizing effect”.

In the case of `O=C(O)/C=C/c1ccccc1` [t-cinnamic acid], the “rate of conversion of L-phenylalanine relative to the maximum rate” value (PAL; t-cinnamic acid 150 mM (substrate inhibition)) is given as “one-half”.
